Assay results from patent EP0182152B1, “Antitumor antibiotics (LL-E33288 Complex)” (AMERICAN CYANAMID COMPANY, priority 1984, dated 1986).

Columns and labels:
[1] = tested on: lymphocytic leukemia P388; test: Lymphocytic Leukemia P388 Test; assay type: in vivo, BDF1 mice; conditions: Table IX
Text: (§1) Certain in vivo testing systems and protocols have been developed by the National Cancer Institute for testing compounds to determine their suitability as anti-neoplastic agents. These have been reported in "Cancer Chemotherapy Reports", Part III, Vol. 3, No. 2 (1972), Geran, et al. These protocols have established standardized screening tests which are generally followed in the field of testing for antitumor agents. Of these systems, lymphocytic leukemia P388, melanotic melanoma B16, L1210 leukemia and colon 26 adenocarcinoma are particularly significant to the present invention. These neoplasms are utilized for testing as transplantable tumors in mice. Generally, significant anti-tumor activity, shown in these protocols by a percentage increase of mean survival times of the treated animals (T) over the control animals (C), is indicative of similar results in human leukemias and solid tumors.
The animals used were BDF1 mice, all of one sex, weighing a minimum of 17 g and all within a 3 g weight range. There were 5 or 6 mice per test group. The tumor transplant was by intraperitoneal injection of 0.5 ml of dilute ascitic fluid containing 10^6 cells of lymphocytic leukemia P388. LL-E33288 antibiotics were tested in the P388 system both as the individual β1-Br and […] components and as a complex of all components (Bromo-complex). The test compounds were administered intrapertioneally at a volume of 0.5 ml in 0.2% Klucel in normal saline on days 1, 5 and 9 (relative to tumor inoculation) at the indicated doses. The mice were weighed and the survivors recorded on a regular basis for 30 days. The median survival time and the ratio of survival time for treated (T)/control (C) animals were calculated. The positive control compound was Cisplatin given as an intraperitioneal injection in 0.5 ml of 0.2% Klucel on days 1, 5 and 9 at the indicated doses.
If T/C X 100 (%) is 125 or over, the tested compound is considered to have significant anti-tumor activity.
(§2) In the same manner, the following iodo-components were tested for antineoplastic activity.

melanotic melanoma B16 = test: Melanotic Melanoma B16 Test; assay type: in vivo, BDF1 mice; conditions: Table X, control value not given
Text: as §1
The animals used were BDF1 mice, all of the same sex, weighing a minimum of 17 g and all within a 3 g weight range. There are normally 6 animals per test group. A 1 g portion of melanotic melanoma β16 tumor was homogenized in 10 ml of cold balanced salt solution and a 0.5 ml aliquot of the homogenate was implanted intraperitoneally into each of the test mice. LL-E33288 antibiotics were tested in the β16 system both as the individual β1-Br and γ1-Br components and as a complex of all components (Bromo-complex). The test compounds were administered intraperitioneally on days 1 through 9 (relative to tumor inoculation) at various doses. The mice were weighed and survivors recorded on a regular basis for 60 days. The median survival time and the ratio of survival time for treated (T)/control (C) animals were calculated. The positive control compounds were Cisplatin or Adriamycin. The results of this test appear in Table V. If T/C X 100 (%) is 125 or over, the tested compound is considered to have significant anti-tumor activity.
as §2

[2] = tested on: lymphocytic leukemia L1210; test: Lymphocytic Leukemia L1210 Test; assay type: in vivo, BDF1 mice; conditions: Table XI, control 9 days
Text: as §1
The animals used were BDF1 mice, all of one sex, weighing a minimum of 17 g and all within a 3 g weight range. There were 6 mice in each test group and 18 in control groups. The tumor transplant was by intraperitoneal injection of 0.5 ml of lymphocytic leukemia L1210 at a concentration of 10^5 cells per mouse. LL-E33288 antibiotics were tested in the L1210 system both as the individual β1-Br component and as a complex of all components (Bromo-complex). The test compounds were administered on days 1, 5 and 9 or days 1 through 9 (relative to tumor inoculation) at various doses. The mice were weighed and survivors recorded on a regular basis for 30 days. The median survival time and the ratio of survival time for treated (T)/control (C) animals were calculated. The positive control compound was 1,4-dihydroxy-5,8-bis[[2-(2-hydroxyethylamino)ethyl]amino]anthraquinone dihydrochloride or Cisplatin given intraperitoneally at the indicated dose. If T/C X 100 (%) is 125 or over, the tested compound is considered to have significant anti-tumor activity.
as §2

Colon 26 tumor = test: Colon 26 Adenocarcinoma Test; assay type: in vivo, CD2F1 female mice; conditions: Table XII, control 18.5 days
Text: as §1
The animals used were CD2F1 female mice weighing a minimum of 17 g and all within a 3 g weight range. There were 5 or 6 mice per test group with three groups of 5 or 6 animals used as untreated controls for each test. The tumor implant was by intraperitoneal (or subcutaneous) injection of 0.5 ml of a 2% Colon 26 tumor brei in Eagle's MEM medium containing antibiotics. LL-E33288 antibiotics were tested in the Colon 26 system as a complex (Bromo-complex) of all components. The test compounds were administered intraperitoneally on days 1, 5 and 9 (relative to tumor implant doses). The mice were weighed and deaths recorded on a regular basis for 30 days. The median survival times for treated (T)/control (C) animals were calculated. The positive control compound was Cisplatin. If T/C X 100 (%) is 130 or over, the tested compound is considered to have significant anti-tumor activity.
as §2

[3] = Test 1, dose .00015 mg/kg, control 13 days
[4] = Test 1, dose .0003 mg/kg, control 13 days
[5] = Test 1, dose .0006 mg/kg, control 13 days
[6] = Test 1, dose .00125 mg/kg, control 13 days
[7] = Test 1, dose .0025 mg/kg, control 13 days
[8] = Test 1, dose .005 mg/kg, control 13 days
[9] = Test 2, dose - .00125 mg/kg, control 11 days
[10] = Test 2, dose .00015 mg/kg, control 11 days
[11] = Test 2, dose .0003 mg/kg, control 11 days
[12] = Test 2, dose .0006 mg/kg, control 11 days
[13] = Test 2, dose .0025 mg/kg, control 11 days
[14] = Test 2, dose .005 mg/kg, control 11 days
[15] = Test 2, dose .01 mg/kg, control 11 days

SMILES: CCN[C@H]1CO[C@@H](O[C@H]2[C@H](O[C@H]3C#CC=CC#C[C@@]4(O)CC(=O)C(NC(=O)OC)=C3/C4=C\CSSSC)O[C@H](C)[C@@H](NO[C@H]3C[C@H](O)[C@H](SC(=O)c4c(C)c(I)c(O[C@@H]5O[C@@H](C)[C@H](O)[C@@H](OC)[C@H]5O)c(OC)c4OC)[C@@H](C)O3)[C@@H]2O)C[C@@H]1OC (stereo in doubt) [LL-E33288γ1-I]
- Median Survival [1, 3]: 15 days
- T/C x 100 [1, 3]: 115%
- Median Survival [1, 4]: 15.5 days
- T/C x 100 [1, 4]: 119%
- Median Survival [1, 5]: 18 days
- T/C x 100 [1, 5]: 138%
- Median Survival [1, 6]: 18.5 days
- T/C x 100 [1, 6]: 142%
- Median Survival [1, 7]: 22 days
- T/C x 100 [1, 7]: 169%
- Median Survival [1, 8]: >25.5 days
- T/C x 100 [1, 8]: >196%
- Median Survival [1, 9]: 18.5 days
- T/C x 100 [1, 9]: 168%
- Median Survival [1, 10]: 14 days
- T/C x 100 [1, 10]: 127%
- Median Survival [1, 11]: 14 days
- T/C x 100 [1, 11]: 127%
- Median Survival [1, 12]: 16 days
- T/C x 100 [1, 12]: 145%
- Median Survival [1, 13]: 22.5 days
- T/C x 100 [1, 13]: 205%
- Median Survival [1, 14]: 18 days
- T/C x 100 [1, 14]: 164%
- Median Survival [1, 15]: 11 days
- T/C x 100 [1, 15]: 100%
- Median Survival (melanotic melanoma B16; dose .00007 mg/kg): 30.5 days
- T/C x 100 (melanotic melanoma B16; dose .00007 mg/kg): 179%
- Median Survival (melanotic melanoma B16; dose .00015 mg/kg): 33.5 days
- T/C x 100 (melanotic melanoma B16; dose .00015 mg/kg): 197%
- Median Survival (melanotic melanoma B16; dose .0003 mg/kg): 35.5 days
- T/C x 100 (melanotic melanoma B16; dose .0003 mg/kg): 209%
- Median Survival (melanotic melanoma B16; dose .0006 mg/kg): 42.5 days
- T/C x 100 (melanotic melanoma B16; dose .0006 mg/kg): 250%
- Median Survival (melanotic melanoma B16; dose .00125 mg/kg): 27 days
- T/C x 100 (melanotic melanoma B16; dose .00125 mg/kg): 159%
- Median Survival (melanotic melanoma B16; dose .0025 mg/kg): 26.5 days
- T/C x 100 (melanotic melanoma B16; dose .0025 mg/kg): 156%
- Median Survival ([2]; dose .0006 mg/kg): 10 days
- T/C x 100 ([2]; dose .0006 mg/kg): 111%
- Median Survival ([2]; dose .0012 mg/kg): 10.5 days
- T/C x 100 ([2]; dose .0012 mg/kg): 117%
- Median Survival ([2]; dose .0025 mg/kg): 11 days
- T/C x 100 ([2]; dose .0025 mg/kg): 122%
- Median Survival ([2]; dose .005 mg/kg): 14 days
- T/C x 100 ([2]; dose .005 mg/kg): 156%
- Median Survival ([2]; dose .01 mg/kg): 8 days
- T/C x 100 ([2]; dose .01 mg/kg): 89%
- Median Survival (Colon 26 tumor; dose ,0006 mg/kg): 23.5 days
- T/C x 100 (Colon 26 tumor; dose ,0006 mg/kg): 127%
- Median Survival (Colon 26 tumor; dose .00007 mg/kg): 17 days
- T/C x 100 (Colon 26 tumor; dose .00007 mg/kg): 92%
- Median Survival (Colon 26 tumor; dose .00015 mg/kg): 17.5 days
- T/C x 100 (Colon 26 tumor; dose .00015 mg/kg): 95%
- Median Survival (Colon 26 tumor; dose .0003 mg/kg): 20 days
- T/C x 100 (Colon 26 tumor; dose .0003 mg/kg): 108%
- Median Survival (Colon 26 tumor; dose .00125 mg/kg): 22.5 days
- T/C x 100 (Colon 26 tumor; dose .00125 mg/kg): 122%
- Median Survival (Colon 26 tumor; dose .0025 mg/kg): 27 days
- T/C x 100 (Colon 26 tumor; dose .0025 mg/kg): 146%
- Median Survival (Colon 26 tumor; dose .005 mg/kg): 25.5 days
- T/C x 100 (Colon 26 tumor; dose .005 mg/kg): 138%
- Median Survival (Colon 26 tumor; dose .01 mg/kg): 11 days
- T/C x 100 (Colon 26 tumor; dose .01 mg/kg): 59%
